Assay results as given in US10710978B2, “STK4 inhibitors for treatment of hematologic malignancies” (Dana-Farber Cancer Institute, Inc., priority 2015, dated 2020).
Where two headings read alike, the source gives them in different places.

What was measured:
Assay in all cases: KiNativ assay
Type in all cases: binding
Settings in all cases: H929 live cell
KSR1, KSR2 = system: KSR1, KSR2
Protocol: (§1) Biochemical IC50s of the compounds of the present disclosure against various kinases were measured in a KiNativ assay. Compounds were screened in duplicate at 10 μM in H929 live cell. IC50 was measured via Mass spectroscopy (MS).

CDK5 = CDK5 (Homo sapiens (Human), UniProt Q00535)
Protocol: as §1

MAP3K2, MAP3K3 = system: MAP3K2, MAP3K3
Protocol: as §1

SRPK1 = SRPK1 (Homo sapiens (Human), UniProt Q96SB4)
Protocol: as §1

LKB1 = LKB1 (Homo sapiens (Human), UniProt Q15831)
Protocol: as §1

IRE1 = IRE1 (Homo sapiens (Human), UniProt O75460)
Protocol: as §1

MASTL = MASTL (Homo sapiens (Human), UniProt Q96GX5)
Protocol: as §1

GCN2 domain2 = GCN2 domain2 (Homo sapiens (Human), UniProt Q9P2K8)
Protocol: as §1

RSK1 domain1 = RSK1 domain1 (Homo sapiens (Human), UniProt Q15418)
Protocol: as §1

STLK5 = STLK5 (Homo sapiens (Human), UniProt Q7RTN6)
Protocol: as §1

PITSLRE = system: PITSLRE
Protocol: as §1

CDC2 = CDC2 (Homo sapiens (Human), UniProt P06493)
Protocol: as §1

JAK3 domain2 = JAK3 domain2 (Homo sapiens (Human), UniProt P52333)
Protocol: as §1

CDK2 = CDK2 (Homo sapiens (Human), UniProt P24941)
Protocol: as §1

HPK1 = HPK1 (Homo sapiens (Human), UniProt Q92918)
Protocol: as §1

PLK1 = PLK1 (Homo sapiens (Human), UniProt P53350)
Protocol: as §1

SGK3 = SGK3 (Homo sapiens (Human), UniProt Q96BR1)
Protocol: as §1

ABL, ARG = system: ABL, ARG
Protocol: as §1

NuaK1 = NuaK1 (Homo sapiens (Human), UniProt O60285)
Protocol: as §1

CK1a = CK1a (Homo sapiens (Human), UniProt P48729)
Protocol: as §1

ULK1 = ULK1 (Homo sapiens (Human), UniProt O75385)
Protocol: as §1

LYN = LYN (Homo sapiens (Human), UniProt P07948)
Protocol: as §1

PRPK = PRPK (Homo sapiens (Human), UniProt Q96S44)
Protocol: as §1

IKKb = IKKb (Homo sapiens (Human), UniProt O14920)
Protocol: as §1

PIP4K2A = PIP4K2A (Homo sapiens (Human), UniProt P48426)
Protocol: as §1

IKKa = IKKa (Homo sapiens (Human), UniProt O15111)
Protocol: as §1

MLKL = MLKL (Homo sapiens (Human), UniProt Q8NB16)
Protocol: as §1

MARK3 = MARK3 (Homo sapiens (Human), UniProt P27448)
Protocol: as §1

CK1g2 = CK1g2 (Homo sapiens (Human), UniProt P78368)
Protocol: as §1

MAP2K5 = MAP2K5 (Homo sapiens (Human), UniProt Q13163)
Protocol: as §1

IKKe, TBK1 = system: IKKe, TBK1
Protocol: as §1

PKN1 = PKN1 (Homo sapiens (Human), UniProt Q16512)
Protocol: as §1

NEK4 = NEK4 (Homo sapiens (Human), UniProt P51957)
Protocol: as §1

SRPK2 = SRPK2 (Homo sapiens (Human), UniProt P78362)
Protocol: as §1

NuaK1, sequence (O60285 whole entry): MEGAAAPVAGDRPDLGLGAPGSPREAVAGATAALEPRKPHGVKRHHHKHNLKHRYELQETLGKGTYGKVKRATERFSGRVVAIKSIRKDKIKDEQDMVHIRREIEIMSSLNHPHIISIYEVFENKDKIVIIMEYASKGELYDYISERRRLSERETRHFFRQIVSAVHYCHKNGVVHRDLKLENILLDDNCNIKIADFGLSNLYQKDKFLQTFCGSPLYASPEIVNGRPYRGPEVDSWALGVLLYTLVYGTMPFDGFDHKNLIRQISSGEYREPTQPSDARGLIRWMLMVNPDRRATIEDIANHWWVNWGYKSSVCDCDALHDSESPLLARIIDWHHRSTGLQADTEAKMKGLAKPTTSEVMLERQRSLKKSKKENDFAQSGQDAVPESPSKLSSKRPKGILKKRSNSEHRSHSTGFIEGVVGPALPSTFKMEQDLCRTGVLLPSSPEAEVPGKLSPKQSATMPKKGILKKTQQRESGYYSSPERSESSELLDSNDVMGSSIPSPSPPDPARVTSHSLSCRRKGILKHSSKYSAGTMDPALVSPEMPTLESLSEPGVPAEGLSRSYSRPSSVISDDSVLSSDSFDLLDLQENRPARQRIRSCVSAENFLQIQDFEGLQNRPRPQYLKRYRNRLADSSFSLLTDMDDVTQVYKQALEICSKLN
CDC2, sequence (P06493 whole entry): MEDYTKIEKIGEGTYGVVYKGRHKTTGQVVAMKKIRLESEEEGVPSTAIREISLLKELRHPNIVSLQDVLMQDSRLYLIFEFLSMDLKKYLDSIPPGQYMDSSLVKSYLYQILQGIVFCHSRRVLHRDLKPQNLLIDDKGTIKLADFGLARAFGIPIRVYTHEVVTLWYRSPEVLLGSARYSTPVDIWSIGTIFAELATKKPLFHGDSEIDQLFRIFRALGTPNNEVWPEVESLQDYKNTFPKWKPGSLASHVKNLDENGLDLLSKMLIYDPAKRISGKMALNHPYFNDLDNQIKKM
CK1g2, sequence (P78368 whole entry): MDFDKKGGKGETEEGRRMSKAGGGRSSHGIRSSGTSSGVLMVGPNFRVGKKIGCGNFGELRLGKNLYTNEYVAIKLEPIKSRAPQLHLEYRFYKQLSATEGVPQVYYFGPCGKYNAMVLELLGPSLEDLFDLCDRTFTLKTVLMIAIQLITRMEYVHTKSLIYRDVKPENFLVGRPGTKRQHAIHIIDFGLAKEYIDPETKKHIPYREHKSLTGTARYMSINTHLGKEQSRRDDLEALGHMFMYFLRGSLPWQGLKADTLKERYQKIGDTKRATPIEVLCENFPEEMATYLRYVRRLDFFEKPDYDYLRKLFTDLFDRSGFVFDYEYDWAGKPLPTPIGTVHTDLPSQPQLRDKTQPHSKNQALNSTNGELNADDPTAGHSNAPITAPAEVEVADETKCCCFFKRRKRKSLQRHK
IKKa, sequence (O15111 whole entry): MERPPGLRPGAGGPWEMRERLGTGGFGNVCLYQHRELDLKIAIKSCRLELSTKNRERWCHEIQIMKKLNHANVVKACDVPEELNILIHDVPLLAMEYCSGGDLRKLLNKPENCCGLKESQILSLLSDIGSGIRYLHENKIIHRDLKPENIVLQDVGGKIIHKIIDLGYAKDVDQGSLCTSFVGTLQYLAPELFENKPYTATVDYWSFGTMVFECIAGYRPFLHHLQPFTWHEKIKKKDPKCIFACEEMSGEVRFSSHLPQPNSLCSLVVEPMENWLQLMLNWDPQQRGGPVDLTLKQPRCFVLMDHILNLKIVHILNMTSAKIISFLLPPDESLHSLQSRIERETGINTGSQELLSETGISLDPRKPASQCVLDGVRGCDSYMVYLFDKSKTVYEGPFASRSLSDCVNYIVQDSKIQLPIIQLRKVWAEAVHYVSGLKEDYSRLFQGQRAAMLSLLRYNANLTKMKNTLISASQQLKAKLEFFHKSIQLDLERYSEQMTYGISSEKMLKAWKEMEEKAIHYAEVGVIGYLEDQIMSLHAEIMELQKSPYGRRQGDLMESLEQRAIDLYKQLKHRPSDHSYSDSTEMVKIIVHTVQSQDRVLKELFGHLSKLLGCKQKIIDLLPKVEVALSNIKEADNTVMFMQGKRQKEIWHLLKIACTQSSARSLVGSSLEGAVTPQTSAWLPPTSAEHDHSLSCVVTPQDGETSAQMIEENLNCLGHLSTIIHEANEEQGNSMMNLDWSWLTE
SGK3, sequence (Q96BR1 whole entry): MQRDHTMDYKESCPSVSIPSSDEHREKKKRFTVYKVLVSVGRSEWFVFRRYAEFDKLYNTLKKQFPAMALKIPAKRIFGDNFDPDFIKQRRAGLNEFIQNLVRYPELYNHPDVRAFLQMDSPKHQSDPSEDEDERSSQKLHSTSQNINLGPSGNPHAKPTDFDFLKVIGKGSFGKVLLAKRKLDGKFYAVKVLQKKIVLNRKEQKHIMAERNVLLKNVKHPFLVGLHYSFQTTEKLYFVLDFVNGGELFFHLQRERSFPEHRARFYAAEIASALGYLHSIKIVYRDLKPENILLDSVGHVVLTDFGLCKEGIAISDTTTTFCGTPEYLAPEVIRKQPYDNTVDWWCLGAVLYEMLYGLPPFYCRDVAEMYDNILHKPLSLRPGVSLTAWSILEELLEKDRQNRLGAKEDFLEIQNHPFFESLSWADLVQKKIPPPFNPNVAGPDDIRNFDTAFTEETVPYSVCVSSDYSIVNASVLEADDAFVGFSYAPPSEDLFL
CDK5, sequence (Q00535 whole entry): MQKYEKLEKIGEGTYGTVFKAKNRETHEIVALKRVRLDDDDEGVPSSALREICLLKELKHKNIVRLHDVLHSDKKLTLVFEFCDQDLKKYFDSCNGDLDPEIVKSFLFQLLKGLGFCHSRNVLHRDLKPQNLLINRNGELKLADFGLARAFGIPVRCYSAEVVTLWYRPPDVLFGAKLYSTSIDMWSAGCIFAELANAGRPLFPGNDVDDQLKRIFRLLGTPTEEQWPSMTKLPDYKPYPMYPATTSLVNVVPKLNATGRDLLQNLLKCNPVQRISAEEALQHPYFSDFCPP
MARK3, sequence (P27448 whole entry): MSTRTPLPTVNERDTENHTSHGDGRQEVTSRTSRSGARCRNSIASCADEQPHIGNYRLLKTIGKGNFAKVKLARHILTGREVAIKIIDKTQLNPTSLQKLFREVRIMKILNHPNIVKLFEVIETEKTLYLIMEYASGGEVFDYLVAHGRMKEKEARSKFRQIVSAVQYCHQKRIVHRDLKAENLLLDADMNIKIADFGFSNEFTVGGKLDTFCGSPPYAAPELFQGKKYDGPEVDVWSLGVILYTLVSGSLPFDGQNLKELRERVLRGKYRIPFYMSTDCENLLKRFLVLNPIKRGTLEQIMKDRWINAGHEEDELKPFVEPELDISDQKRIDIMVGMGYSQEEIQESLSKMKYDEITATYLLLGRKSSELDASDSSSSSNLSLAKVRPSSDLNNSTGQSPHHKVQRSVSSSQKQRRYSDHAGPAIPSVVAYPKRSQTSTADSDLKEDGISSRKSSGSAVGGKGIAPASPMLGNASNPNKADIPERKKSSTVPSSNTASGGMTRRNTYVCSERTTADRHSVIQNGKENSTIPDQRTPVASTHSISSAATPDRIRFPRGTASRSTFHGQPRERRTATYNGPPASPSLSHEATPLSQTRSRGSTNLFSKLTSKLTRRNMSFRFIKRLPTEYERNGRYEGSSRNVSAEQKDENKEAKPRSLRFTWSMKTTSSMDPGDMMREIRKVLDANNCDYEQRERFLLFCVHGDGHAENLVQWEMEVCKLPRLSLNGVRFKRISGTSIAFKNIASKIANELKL
SRPK1, sequence (Q96SB4 whole entry): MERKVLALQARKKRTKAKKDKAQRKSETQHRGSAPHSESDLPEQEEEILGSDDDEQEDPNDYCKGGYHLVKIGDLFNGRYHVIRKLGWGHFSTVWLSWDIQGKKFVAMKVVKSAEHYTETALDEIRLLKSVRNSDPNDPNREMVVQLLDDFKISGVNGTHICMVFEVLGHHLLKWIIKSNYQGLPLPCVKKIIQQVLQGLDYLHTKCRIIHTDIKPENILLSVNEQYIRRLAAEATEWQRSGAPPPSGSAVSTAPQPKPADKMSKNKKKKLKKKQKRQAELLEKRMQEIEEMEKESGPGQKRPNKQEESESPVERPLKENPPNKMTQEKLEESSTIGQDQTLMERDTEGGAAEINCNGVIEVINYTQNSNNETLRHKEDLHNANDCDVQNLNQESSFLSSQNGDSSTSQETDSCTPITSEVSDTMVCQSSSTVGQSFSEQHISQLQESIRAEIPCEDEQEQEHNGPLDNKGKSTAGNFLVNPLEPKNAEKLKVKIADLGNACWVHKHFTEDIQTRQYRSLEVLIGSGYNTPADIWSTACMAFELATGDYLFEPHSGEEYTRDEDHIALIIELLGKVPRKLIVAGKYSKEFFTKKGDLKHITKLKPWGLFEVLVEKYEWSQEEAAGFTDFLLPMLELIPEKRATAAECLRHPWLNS
STLK5, sequence (Q7RTN6 whole entry): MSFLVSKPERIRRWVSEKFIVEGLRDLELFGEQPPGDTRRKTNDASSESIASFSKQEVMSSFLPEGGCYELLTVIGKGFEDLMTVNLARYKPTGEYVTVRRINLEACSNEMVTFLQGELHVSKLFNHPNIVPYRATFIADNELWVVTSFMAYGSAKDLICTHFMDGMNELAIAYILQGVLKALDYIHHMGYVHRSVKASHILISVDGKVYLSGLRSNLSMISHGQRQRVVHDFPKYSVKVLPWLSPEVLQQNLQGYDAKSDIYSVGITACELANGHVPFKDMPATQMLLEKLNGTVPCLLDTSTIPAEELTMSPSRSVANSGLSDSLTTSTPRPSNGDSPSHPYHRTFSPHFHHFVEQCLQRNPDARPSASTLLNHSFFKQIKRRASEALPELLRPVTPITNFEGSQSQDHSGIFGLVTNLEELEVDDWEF
PRPK, sequence (Q96S44 whole entry): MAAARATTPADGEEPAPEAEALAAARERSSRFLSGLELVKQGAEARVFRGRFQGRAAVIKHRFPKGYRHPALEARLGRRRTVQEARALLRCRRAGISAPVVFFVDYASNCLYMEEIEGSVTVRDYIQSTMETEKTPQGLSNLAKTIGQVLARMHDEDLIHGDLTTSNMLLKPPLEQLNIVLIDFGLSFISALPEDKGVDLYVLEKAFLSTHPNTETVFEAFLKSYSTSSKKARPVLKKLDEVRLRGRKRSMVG

CN(C1CC1)S(=O)(=O)c1ccc(-c2cnc(N)c(-c3ccc4c(c3)CCNC4=O)c2)c(F)c1 [Compound I-28, 4-(6-amino-5-(1-oxo-1,2,3,4-tetrahydroisoquinolin-6-yl)pyridin-3-yl)-N-cyclopropyl-3-fluoro-N-methylbenzenesulfonamide]
% inhibition (range) (KSR1, KSR2; 10 μM): 0.0% | inhibition (10 μM) (KSR1, KSR2): −14.5% | inhibition at 10 µM (CDK5; read-out: % inhibition (range)): 0% | inhibition at 10 µM (CDK5; read-out: inhibition (10 μM)): 17% | % inhibition (range) (MAP3K2, MAP3K3; 10 μM): 0.0% | inhibition (10 μM) (MAP3K2, MAP3K3): 33.8% | inhibition at 10 µM (SRPK1; read-out: % inhibition (range)): 0% | inhibition at 10 µM (SRPK1; read-out: inhibition (10 μM)): 19.5% | inhibition at 10 µM (LKB1; read-out: % inhibition (range)): 0% | inhibition at 10 µM (LKB1; read-out: inhibition (10 μM)): -0.6% | inhibition at 10 µM (IRE1; read-out: % inhibition (range)): 0% | inhibition at 10 µM (IRE1; read-out: inhibition (10 μM)): -34.1% | inhibition at 10 µM (MASTL; read-out: % inhibition (range)): 0% | inhibition at 10 µM (MASTL; read-out: inhibition (10 μM)): 10.2% | inhibition at 10 µM (GCN2 domain2; read-out: % inhibition (range)): 0% | inhibition at 10 µM (GCN2 domain2; read-out: inhibition (10 μM)): -32.1% | inhibition at 10 µM (RSK1 domain1; read-out: % inhibition (range)): 0% | inhibition at 10 µM (RSK1 domain1; read-out: inhibition (10 μM)): 15.6% | inhibition at 10 µM (STLK5; read-out: % inhibition (range)): 0% | inhibition at 10 µM (STLK5; read-out: inhibition (10 μM)): 6.3% | % inhibition (range) (PITSLRE; 10 μM): 0.0% | inhibition (10 μM) (PITSLRE): −6.3% | inhibition at 10 µM (CDC2; read-out: % inhibition (range)): 0% | inhibition at 10 µM (CDC2; read-out: inhibition (10 μM)): -26.5% | inhibition at 10 µM (JAK3 domain2; read-out: % inhibition (range)): 0% | inhibition at 10 µM (JAK3 domain2; read-out: inhibition (10 μM)): 15.2% | inhibition at 10 µM (CDK2; read-out: % inhibition (range)): 0% | inhibition at 10 µM (CDK2; read-out: inhibition (10 μM)): 27.6% | inhibition at 10 µM (HPK1; read-out: % inhibition (range)): > 90% | inhibition at 10 µM (HPK1; read-out: inhibition (10 μM)): 90.8% | inhibition at 10 µM (PLK1; read-out: % inhibition (range)): 0% | inhibition at 10 µM (PLK1; read-out: inhibition (10 μM)): 15.2% | inhibition at 10 µM (SGK3; read-out: % inhibition (range)): 0% | inhibition at 10 µM (SGK3; read-out: inhibition (10 μM)): 9.9% | % inhibition (range) (ABL, ARG; 10 μM): 0.0% | inhibition (10 μM) (ABL, ARG): 13.3% | inhibition (10 μM) (NuaK1): 66.7% | inhibition at 10 µM (NuaK1; read-out: % inhibition (range)): 50 to 75% | inhibition at 10 µM (NuaK1; read-out: inhibition (10 μM)): 55.6% | inhibition at 10 µM (CK1a; read-out: % inhibition (range)): 35 to 50% | inhibition at 10 µM (CK1a; read-out: inhibition (10 μM)): 37.8% | inhibition at 10 µM (ULK1; read-out: % inhibition (range)): 0% | inhibition at 10 µM (ULK1; read-out: inhibition (10 μM)): -54.6% | inhibition at 10 µM (LYN; read-out: % inhibition (range)): 0% | inhibition at 10 µM (LYN; read-out: inhibition (10 μM)): -10.3% | inhibition at 10 µM (PRPK; read-out: % inhibition (range)): 0% | inhibition at 10 µM (PRPK; read-out: inhibition (10 μM)): 10.1% | inhibition at 10 µM (IKKb; read-out: % inhibition (range)): 0% | inhibition at 10 µM (IKKb; read-out: inhibition (10 μM)): 6.8% | inhibition at 10 µM (PIP4K2A; read-out: % inhibition (range)): 0% | inhibition at 10 µM (PIP4K2A; read-out: inhibition (10 μM)): 3.2% | inhibition at 10 µM (IKKa; read-out: % inhibition (range)): 0% | inhibition at 10 µM (IKKa; read-out: inhibition (10 μM)): 6.4% | inhibition at 10 µM (MLKL; read-out: % inhibition (range)): 0% | inhibition at 10 µM (MLKL; read-out: inhibition (10 μM)): 23.9% | inhibition at 10 µM (MARK3; read-out: % inhibition (range)): 0% | inhibition at 10 µM (MARK3; read-out: inhibition (10 μM)): 14.5% | inhibition at 10 µM (CK1g2; read-out: % inhibition (range)): > 90% | inhibition at 10 µM (CK1g2; read-out: inhibition (10 μM)): > 90% | inhibition at 10 µM (MAP2K5; read-out: % inhibition (range)): 50 to 75% | inhibition at 10 µM (MAP2K5; read-out: inhibition (10 μM)): 58% | % inhibition (range) (IKKe, TBK1; 10 μM): 0.0% | inhibition (10 μM) (IKKe, TBK1): −14.8% | inhibition at 10 µM (PKN1; read-out: % inhibition (range)): 35 to 50% | inhibition at 10 µM (PKN1; read-out: inhibition (10 μM)): 40.5% | inhibition at 10 µM (NEK4; read-out: % inhibition (range)): 0% | inhibition at 10 µM (NEK4; read-out: inhibition (10 μM)): -2.8% | inhibition at 10 µM (SRPK2; read-out: % inhibition (range)): 0% | inhibition at 10 µM (SRPK2; read-out: inhibition (10 μM)): 8.5%
